This is an account of results in US12090137B2, “Solid Δ9-tetrahydrocannabinol (Δ9-THC) compositions” (CANNA-C[…], priority 2020, dated 2024).

This series is described as follows: Flowable powder formation by freeze-drying (lyophilization), Example 1. It counts as physicochemical.

Method: The powder former (amount based on 1:1, 1:2 or 1:4 molar Δ^9-THC:powder former ratio) was dissolved in H2O (2 mL) and, if needed, dioxane (2 mL) was added to form a solution. The powder former solution was added to the Δ^9-THC solution in the round bottom flask. The round bottom flask was then submerged in a dry ice/acetone bath or liquid nitrogen to freeze the solution while continuously rotating the flask by hand to maximize surface area and form an even, thin layer around the flask. Once frozen, the round bottom flask was attached to a LabConco lyophilizer with an Edwards RV8 vacuum pump pre-equilibrated at ^˜−50° C. Samples were left overnight (18 hrs) and removed the next day.
Δ^9-THC and several powder formers were lyophilized using the described procedure to determine if a flowable powder would result.

For the compound `CCCCCc1cc(O)c2c(c1)OC(C)(C)[C@@H]1CCC(C)=C[C@@H]21` [Δ^9-THC, (−)-trans-Δ^9-tetrahydrocannabinol], the “Result of lyophilizing without a powder former” value runs as follows: (from dioxane alone) “gel”; (from dioxane/water (~75/25 by volume)) “tacky gel”.
